In patent US20250127898A1, “PHOTODYNAMIC THERAPY AND DIAGNOSIS” (RMW CHO Group Limited, priority 2021, published 2025):
Read-outs that look alike come from different tables or passages of the source.

Experiments:
[1] = test system: Human ovarian cancer cell line SKOV3; test: Phototoxicity in SKOV3 cells after 660 nm laser or LED activation (AlamarBlue viability); type: cell-based
Experimental: Samples were stored at 4° C. protected from light. […] All data are shown as mean±SD (where appropriate). […] Laser and LED exposure induce an equivalent response in relation to phototoxicity. Following activation, cells were cultured for a further 24 hours. Media was then replaced with fresh media containing AlamarBlue, and % viable cells remaining assessed as above. Controls included cells treated with reduced chlorin analogues but not activated by laser light; cells without reduced chlorin analogue treatment but with laser light; and untreated controls. All measurements were made in quadruplicate.

[2] = test system: Human ovarian cancer cell line SKOV3; test: Inherent cytotoxicity (dark toxicity) in SKOV3 cells (AlamarBlue viability); type: cell-based
Experimental: Photosensitizers (e.g. chlorin analogue, chlorin e4 disodium (provided by Advanced Molecular Technologies, Scoresby) or Talaporfin sodium (purchased from Focus Bioscience cat #HY-16477-5MG)) were resuspended in 100% dimethylsulfoxide (DMSO) at a concentration of 5.5 mM. Samples were stored at 4° C. protected from light.
All data are shown as mean±SD (where appropriate).
Untreated cells were used as a control. […] All measurements were made in quadruplicate.

[3] = SKOV3 cells, 24 hours incubation, no light activation
[4] = Homo sapiens, SK-OV-3, light or radiation study, SKOV3 cells, 24 hours uptake, 660 nm laser, 50 mW/cm^2 for 5 mins (15 J/cm^2), viability 24 hours after activation, read-out: Phototoxicity μM (IC90)
[5] = SKOV3 cells, vs phyllochlorin free acid / phyllochlorin sodium salt
[6] = Homo sapiens, SK-OV-3, light or radiation study, SKOV3 cancer cells, laser or LED, read-out: phototoxicity IC90

With `C=Cc1c(C)c2cc3nc(c(C)c4[nH]c(cc5nc(cc1[nH]2)C(C)=C5CC)c(C)c4C(=O)O)[C@@H](CCC(=O)O)[C@@H]3C` [Chlorin e4 disodium, chlorin e4 disodium, reference compound] the IC90 ([1]; SKOV3 cells, 24 hours uptake, 660 nm laser, 50 mW/cm^2 for 5 mins (15 J/cm^2), viability 24 hours after activation, read-out: Phototoxicity μM (IC90)) was 21.3 µM and the “Dark toxicity μM (IC10)” value [2, 3] was 40.23 µM.
For `CCC1=C(C)c2cc3[nH]c(cc4nc(c(C)c5cc(C)c(cc1n2)[nH]5)[C@@H](CCC(=O)[O-])[C@@H]4C)c(C)c3CC.[Na+]` [Compound 2, Reduced Phyllochlorin Sodium Salt], the IC90 [1, 4] was 0.071 µM, the “increase in phototoxicity of meso-compound compared to non-meso analogue” value [1, 5] was 4.9 fold and the “Dark toxicity μM (IC10)” value [2, 3] was 47.840 µM. The “Dark toxicity compared to non-meso analogue” value [2, 5] was “largely unaffected”.
`CCC1=C(C)c2cc3[nH]c(cc4nc(c(C)c5cc(C)c(cc1n2)[nH]5)[C@@H](CCC(=O)N[C@H]1C(O)O[C@H](CO)[C@@H](O)[C@@H]1O)[C@@H]4C)c(C)c3CC` (stereo partly shown) [Compound 3, Reduced Phyllochlorin 2-deoxyglucosamine-propylamide] was tested, and the IC90 [1, 4] was 0.043 µM and the “Dark toxicity μM (IC10)” value ([2]; human, 24 h) was 13.330 µM.
`CCC1=C(C)c2cc3[nH]c(cc4nc(c(C)c5cc(C)c(cc1n2)[nH]5)[C@@H](CCC(=O)N(C)CCCS[C@@H]1O[C@H](CO)[C@@H](O)[C@H](O)[C@H]1O)[C@@H]4C)c(C)c3CC` [Compound 4, Reduced Phyllochlorin β-D-1-thioglucose-N-methylpropylamide] was tested, and the IC90 [1, 4] was 0.068 µM and the “Dark toxicity μM (IC10)” value ([2]; human, 24 h) was 2.780 µM.
With `CCC1=C(C)c2cc3[nH]c(cc4nc(c(C)c5cc(C)c(cc1n2)[nH]5)[C@@H](CCC(=O)N(C)CCOCCO[C@@H]1O[C@H](CO)[C@@H](O)[C@H](O)[C@H]1O)[C@@H]4C)c(C)c3CC` [Compound 5, Reduced Phyllochlorin β-D-1-glucose-N-methyl-2-ethoxy-N-ethanamine] the IC90 [1, 4] was 0.102 µM and the “Dark toxicity μM (IC10)” value ([2]; human, 24 h) was 18.440 µM.
In the case of `CCC1=C(C)c2cc3[nH]c(cc4nc(c(C)c5cc(C)c(cc1n2)[nH]5)[C@@H](CCC(=O)N(C)CCCO[C@@H]1O[C@H](CO)[C@@H](O)[C@H](O)[C@H]1O)[C@@H]4C)c(C)c3CC` [Compound 9, Reduced Phyllochlorin β-D-glucosyl-N-methylpropylamide], the IC90 [1, 4] is reported as 0.098 µM and the “Dark toxicity μM (IC10)” value ([2]; human, 24 h) is reported as 12.780 µM.
In the case of `CCC1=C(C)c2cc3[nH]c(cc4nc(c(C)c5cc(C)c(cc1n2)[nH]5)[C@@H](CCC(=O)N(C)C[C@H](O)[C@@H](O)[C@H](O)[C@H](O)CO)[C@@H]4C)c(C)c3CC` [Compound 10, Reduced Phyllochlorin N-meglumine-propylamide], the “Dark toxicity μM (IC10)” value ([2]; human, 24 h) is reported as 4.905 µM.
`CCC1=C(C)c2cc3[nH]c(cc4nc(c(C)c5cc(C)c(cc1n2)[nH]5)[C@@H](CCC(=O)N(C)CCCOCCC[P+](c1ccccc1)(c1ccccc1)c1ccccc1)[C@@H]4C)c(C)c3CC` [Compound 11] was tested, and the IC90 [1, 6] was ≤ 0.01 µM, the IC90 [1, 4] was 0.003 µM and the “orders of magnitude greater phototoxicity compared to Talaporfin sodium” value ([1]; SKOV3 cells, IC90 compared) was 4 orders of magnitude. For the same compound, the “Dark toxicity μM (IC10)” value ([2]; human, 24 h) was 4.347 µM.
In the case of `CCC1=C(C)c2cc3[nH]c(cc4nc(c(C)c5cc(C)c(cc1n2)[nH]5)[C@@H](CCC(=O)N(C)CCOCCOCCO)[C@@H]4C)c(C)c3CC` [Compound 12, Reduced Phyllochlorin N-(2-(2-(2-hydroxyethoxy)ethoxy)ethyl)-N-methyl-3-amide], the IC90 [1, 4] is reported as 0.078 µM and the “Dark toxicity μM (IC10)” value ([2]; human, 24 h) is reported as 5.975 µM.
With `CCC1=C(C)c2cc3[nH]c(cc4nc(c(C)c5cc(C)c(cc1n2)[nH]5)[C@@H](CCC(=O)N(C)CCOCCOCC[n+]1ccccc1)[C@@H]4C)c(C)c3CC` [Compound 13, Reduced Phyllochlorin N-(2-(2-(2-pyridiniumethoxy)ethoxy)ethyl)-N-methyl-3-amide chloride] the IC90 [1, 6] was ≤ 0.01 µM, the IC90 [1, 4] was 0.006 µM and the “Dark toxicity μM (IC10)” value ([2]; human, 24 h) was 1.260 µM.
With `C=Cc1c(C)c2cc3nc(c(CC(=O)N[C@@H](CC(=O)O)C(=O)O)c4[nH]c(cc5nc(cc1[nH]2)C(C)=C5CC)c(C)c4C(=O)O)[C@@H](CCC(=O)O)[C@@H]3C` [Talaporfin sodium, reference compound] the “Dark toxicity μM (IC10)” value ([2]; human, 24 h) was 11.10 µM.
